Values quoted from earlier work in patent US11058674B2 (priority 2016, dated 2021).
Where two headings read alike, the source gives them in different places.

Columns and labels:
[1] = believed, from literature
[2] = parameters: key: ∘: Effective; conditions: alcohol addiction
[3] = parameters: key: ∘: Effective; conditions: alcohol addiction; remark: listed apart in the source
[4] = tested on: mouse; parameters: key: ∘: Effective; x: Ineffective; conditions: cocaine addiction
[5] = tested on: mouse; parameters: key to Conditioned place preference Relapse: ∘: Effective; conditions: for CPP acquisition caused by cocaine / CPP expression caused by cocaine: N/OFQ: intraventricular administration to a mouse
[6] = tested on: mouse; parameters: key: ∘: Effective; conditions: cocaine addiction
[7] = tested on: rat; parameters: key to Self-administration Seeking behavior: ∘: Effective; x: Ineffective

Compound	Conditioned place preference Acquisition [2]	Conditioned place preference Expression [2]	Conditioned place preference Relapse [2]	Self-administration Uptake behavior [3]	Conditioned place preference Acquisition [4]	CPP acquisition caused by cocaine [5]	CPP expression caused by cocaine [5]	Self-administration Seeking behavior [3]	other results
Cc1ccccc1C(c1ccccc1C)N1C2CCC1CC(O)(c1ccccc1)C2 (centres unmarked) [SCH221510]	–	–	–	–	–	–	–	–	migration to brain [1]: low migration to brain
Cl.O=C1NCN(c2ccccc2)C12CCN([C@H]1CC[C@@H]3CCCc4cccc1c43)CC2 [Ro64-6198, (1S,3aS)-8-(2,3,3a,4,5,6-hexahydro-1H-phenalen-1-yl)-1-phenyl-1,3,8-triaza-spiro[4.5]decan-4-one hydrochloride]	∘ ^13)	∘ ^13)	∘ ^13)	∘ ^10)	–	–	–	–	–
Cl.O=C1NCN(c2ccccc2)C12CCN(C1Cc3cccc4cccc1c34)CC2 (centres unmarked) [Ro65-6570, 8-acenaphthen-1-yl-phenyl-1,3,8-triaza-spiro[4.5]decan-4-one hydrochloride]	–	–	–	–	x ^19)	does not affect	does not affect	–	Conditioned place preference Expression [4]: x ^18)
CNC(=O)Cn1c(=O)n(C2CCN([C@@H]3Cc4cccc5cccc3c45)CC2)c2ccccc21.Cl.O [MT-7716, (R)-2-{3-[1-(acenaphthen-1-yl)piperidin-4-yl]-2-oxo-2,3-dihydro-1H-benzimidazol-1-yl}-N-methylacetamide hydrochloride monohydrate]	–	–	–	∘ ^11)	–	–	–	∘ ^12)	–
N/OFQ: Endogenous ligands of the NOP receptor, named nociceptin and orphanin FQ	∘ ^13)	∘ ^13)	∘ ^13)	∘ ^9)	–	blocks	blocks	∘ ^9)	Conditioned place preference Acquisition [6]: ∘ ^17); Conditioned place preference Expression [6]: ∘ ^18); Self-administration Seeking behavior ([7]; cocaine addiction): x ^16); cocaine seeking behavior induced by a stress after the extinction of the cocaine self-administration ([7]; rat): does not suppress
O=C1Cc2ccccc2N1C1CCN(C2CCC3CCCc4cccc2c43)CC1 (centres unmarked) [AT-202, 1-[1-(2,3,3a,4,5,6-hexahydro-1H-phenalen-1-yl)piperidin-4-yl]-indolin-2-one]	–	–	–	–	x ^20)	does not affect	–	–	relapse of CPP caused by a stress ([5]; cocaine CPP): suppresses; Conditioned place preference Relapse ([5]; cocaine addiction): ∘ ^20)
